The supplement of paper PMC10307832

Legend:
Experiment in all cases: relative viability (nuclei count vs DMSO), 5 days (fraction); higher = more cells survive
Sunitinib + Palbociclib = compound: CCN(CC)CCNC(=O)c1c(C)[nH]c(/C=C2\C(=O)Nc3ccc(F)cc32)c1C [Sunitinib] + CC(=O)c1c(C)c2cnc(Nc3ccc(N4CCNCC4)cn3)nc2n(C2CCCC2)c1=O [Palbociclib] (partner 0.5 µM)
Outline: (§1)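 One day after seeding in 1536-well plates, lung cancer cell lines were dosed by pin tool. Dosing was either single-drug or a fixed anchor-drug dose plus five library-drug doses (not always all listed) in √10 steps. After 5 days, nuclei were stained in one fix-and-stain step and counted on 4× images, and relative viability is the nuclei count of treated wells over that of vehicle wells, given as the median of duplicate plates.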

Sunitinib + Pictilisib = compound: CCN(CC)CCNC(=O)c1c(C)[nH]c(/C=C2\C(=O)Nc3ccc(F)cc32)c1C [Sunitinib] + CS(=O)(=O)N1CCN(Cc2cc3nc(-c4cccc5[nH]ncc45)nc(N4CCOCC4)c3s2)CC1 [Pictilisib] (partner 1 µM)
Outline: as §1

Sunitinib + Phenformin = compound: CCN(CC)CCNC(=O)c1c(C)[nH]c(/C=C2\C(=O)Nc3ccc(F)cc32)c1C [Sunitinib] + N=C(N)NC(=N)NCCc1ccccc1 [Phenformin] (partner 250 µM)
Outline: as §1

Sunitinib + Decitabine = compound: CCN(CC)CCNC(=O)c1c(C)[nH]c(/C=C2\C(=O)Nc3ccc(F)cc32)c1C [Sunitinib] + Nc1ncn([C@H]2C[C@H](O)[C@@H](CO)O2)c(=O)n1 [Decitabine] (partner 2 µM)
Outline: as §1

| Cell Line | relative viability (Sunitinib + Palbociclib; first compound 0.02 µM) | relative viability (Sunitinib + Palbociclib; first compound 0.06325 µM) | relative viability (Sunitinib + Palbociclib; first compound 0.2 µM) | relative viability (Sunitinib + Palbociclib; first compound 0.6325 µM) | relative viability (Sunitinib + Palbociclib; first compound 2 µM) | relative viability (Sunitinib + Pictilisib; first compound 0.02 µM) | relative viability (Sunitinib + Pictilisib; first compound 0.06325 µM) | relative viability (Sunitinib + Pictilisib; first compound 0.2 µM) | relative viability (Sunitinib + Pictilisib; first compound 0.6325 µM) | relative viability (Sunitinib + Pictilisib; first compound 2 µM) | relative viability (Sunitinib + Phenformin; first compound 0.02 µM) | relative viability (Sunitinib + Phenformin; first compound 0.06325 µM) | relative viability (Sunitinib + Phenformin; first compound 0.2 µM) | relative viability (Sunitinib + Phenformin; first compound 0.6325 µM) | relative viability (Sunitinib + Phenformin; first compound 2 µM) | relative viability (Sunitinib + Decitabine; first compound 0.02 µM) | relative viability (Sunitinib + Decitabine; first compound 0.06325 µM) | relative viability (Sunitinib + Decitabine; first compound 0.2 µM) | relative viability (Sunitinib + Decitabine; first compound 0.6325 µM) | relative viability (Sunitinib + Decitabine; first compound 2 µM) |
| --- | --- | --- | --- | --- | --- | --- | --- | --- | --- | --- | --- | --- | --- | --- | --- | --- | --- | --- | --- | --- |
| HARA | 0.268 | 0.257 | 0.201 | 0.246 | 0.275 | 0.397 | 0.374 | 0.606 | 0.31 | 0.323 | 0.478 | 0.495 | 0.484 | 0.399 | 0.43 | 0.506 | 0.604 | 0.539 | 0.563 | 0.586 |
| H3255 | 0.313 | 0.299 | 0.302 | 0.311 | 0.331 | 0.465 | 0.495 | 0.519 | 0.514 | 0.495 | 0.4 | 0.383 | 0.344 | 0.411 | 0.365 | 0.567 | 0.671 | 0.607 | 0.651 | 0.529 |
| A-427 | 0.508 | 0.544 | 0.568 | 0.545 | 0.546 | 0.702 | 0.8 | 0.926 | 0.748 | 0.73 | 0.263 | 0.383 | 0.315 | 0.301 | 0.279 | 0.547 | 0.591 | 0.57 | 0.539 | 0.625 |
| NCI-H1944 | 0.337 | 0.317 | 0.378 | 0.346 | 0.339 | 0.315 | 0.379 | 0.412 | 0.337 | 0.374 | 0.183 | 0.206 | 0.214 | 0.203 | 0.199 | 0.477 | 0.415 | 0.466 | 0.42 | 0.449 |
| EMC-BAC-2 | 0.505 | 0.534 | 0.526 | 0.556 | 0.579 | 0.501 | 0.601 | 0.589 | 0.548 | 0.565 | 0.489 | 0.566 | 0.595 | 0.559 | 0.543 | 0.94 | 1.02 | 1.14 | – | 1.04 |
| NCI-H3122 | 0.159 | 0.189 | 0.213 | 0.176 | 0.207 | 0.576 | 0.64 | 0.583 | 0.577 | 0.548 | 0.35 | 0.387 | 0.366 | 0.361 | 0.288 | 0.412 | 0.439 | 0.542 | 0.364 | 0.453 |
| EPLC-272H | 0.324 | 0.303 | 0.316 | 0.256 | 0.298 | 0.313 | 0.336 | 0.297 | 0.338 | 0.334 | 0.335 | 0.334 | 0.324 | 0.313 | 0.263 | 0.346 | 0.408 | 0.389 | 0.368 | 0.312 |
| LU99A | 0.338 | 0.473 | 0.417 | 0.433 | 0.442 | 0.308 | 0.352 | 0.282 | 0.317 | 0.313 | 0.727 | 0.906 | 1 | 0.803 | 0.782 | 0.792 | 0.836 | 1.02 | 0.995 | 0.734 |
| LXF-289 | 0.599 | 0.621 | 0.597 | 0.619 | 0.603 | 0.743 | 0.874 | 0.868 | 0.786 | 0.881 | 0.461 | 0.517 | 0.548 | 0.533 | 0.511 | 0.379 | 0.394 | 0.436 | 0.382 | 0.408 |
| NCI-H1395 | 0.638 | 0.625 | 0.649 | 0.745 | 0.619 | 0.609 | 0.646 | 0.662 | 0.614 | 0.594 | 0.462 | 0.415 | 0.446 | 0.487 | 0.482 | 0.712 | 0.659 | 0.721 | 0.72 | 0.639 |
| NCI-H650 | 0.298 | 0.338 | 0.308 | 0.355 | 0.396 | 0.828 | 1.09 | 0.932 | 0.858 | 0.843 | 0.444 | 0.46 | 0.428 | 0.49 | 0.465 | 0.341 | 0.291 | 0.321 | 0.325 | 0.321 |
| 201T | 0.347 | 0.363 | 0.336 | 0.352 | 0.378 | 0.697 | 0.708 | 0.738 | 0.675 | 0.738 | 0.444 | 0.468 | 0.496 | 0.468 | 0.434 | 0.838 | 0.91 | – | 0.872 | 0.88 |
| NCI-H2170 | 0.392 | 0.376 | 0.422 | 0.379 | 0.421 | 0.307 | 0.311 | 0.311 | 0.303 | 0.236 | 0.474 | 0.398 | 0.436 | 0.408 | 0.367 | 0.452 | 0.465 | 0.484 | 0.422 | 0.412 |
| NCI-H460 | 0.157 | 0.189 | 0.124 | 0.226 | 0.171 | 0.323 | 0.19 | 0.441 | 0.366 | 0.304 | 0.48 | 0.567 | 0.54 | 0.535 | 0.487 | 0.457 | 0.54 | 0.566 | 0.527 | 0.563 |
| NCI-H1755 | 0.423 | 0.46 | 0.49 | 0.459 | 0.468 | 0.371 | 0.481 | 0.472 | 0.454 | 0.451 | 0.574 | 0.672 | 0.675 | 0.692 | 0.642 | 0.69 | – | 0.663 | 0.692 | 0.76 |
| NCI-H1975 | 0.531 | 0.715 | 0.76 | 0.727 | 0.473 | 0.285 | 0.345 | 0.319 | 0.33 | 0.237 | 0.399 | 0.442 | 0.425 | 0.427 | 0.393 | 0.369 | 0.408 | 0.405 | 0.427 | 0.391 |
